Experimental data from patent publication US6383479B1, “Neutrophil-activating factor” (Novartis AG, priority 1987, dated 2002).
Starred links: 1 amine or outer side, 2 acyl side, 3 side chain; linkers in the order of their positions; H or OH if unused. Positions of bridges follow the written chain, without caps; N, C: chain ends. Non-standard residues stand in square brackets, D forms with d. Residues, ends and D or L forms follow the SMILES beside them. Chains are numbered I, II in the order given. Actinocin(9to1) = Cc1c2oc3c(C)ccc(C(=O)[*:1])c3nc-2c(C(=O)[*:2])c(N)c1=O; NMeV = CN[C@H](C(=O)O)C(C)C; Sar = CNCC(=O)O

How the values were obtained:
[1] = system: human neutrophils; conditions: Wymann et al., J. Biol. Chem. 262 [1987] 12048; cited from earlier work
[2] = system: New Zealand albino rabbits; assay: neutrophil accumulation and plasma leakage in rabbit skin after intradermal injection; type: in vivo; conditions: 2 h; for effect on neutrophil accumulation induced by NAF: NAF 10^−9 moles; for effect on neutrophil accumulation induced by fMLP: fMLP 10^−9 moles
Source text: Inflammatory responses are examined in the skin of conscious 2.0 to 2.5 kg New Zealand albino rabbits. Erythrocytes in blood from donor rabbits are sedimented with hydroxyethyl cellulose (Polysciences, Warrington, Pa.) and neutrophils in the resultant leucocyte-rich plasma are purified (>94% neutrophils) by density gradient centrifugation on Percoll (Pharmacia, Uppsala, Sweden). Cells are resuspended in Ca^2+ and Mg^2+—free Tyrode's solution containing 10% platelet poor plasma to a concentration of 10^6 leukocytes/ml and labeled for 15 min at room temperature with 40 μCi ^111indium-oxine (Amersham) per 10^6 cells. The labeled cells are washed by centrifugation through 10% platelet-poor plasma and approximately 10^6 cells per recipient are mixed with 10 μCi ^125iodine-labeled human serum albumin (Amersham) and injected intravenously through the lateral ear vein of rabbits with inflammatory lesions under study. Intradermal injections of inflammatory agents are then made and animals are killed 2 h later in studies with actinomycin D and polymyxin B, and 4 h later in dose-response experiments. Midway through the period that radiolabeled cells are in circulation, a blood sample is collected and the specific activities of neutrophils and plasma in blood are determined. Radioactivity in inflammatory lesions at the end of each experiment are determined in a multichannel gamma counter, the activity in control skin sites is subtracted and the absolute number of neutrophils and volume of plasma accumulating in inflammatory lesions are calculated from the specific activities. Neutrophil numbers in inflammatory lesions are standardised between animals by expressing the results as cell number per 10^6 neutrophils circulating per ml peripheral blood, according to the method of Cybulsky et al., Am. J. Pathol. 124 [1986] 367.
Recombinant NAF obtained as described under Example 19 is dissolved at 400 μg/ml in minimal essential medium (50 mM) plus 0.45 M NaCl (pH 6.5). Endotoxin (E. coli serotype 055:B5, Sigma, St. Louis, Mo.) is dissolved in pyrogen-free normal saline. fMLP is dissolved in dimethyl sulphoxide at 10^−2 M and diluted to working concentrations in PFS. Polymyxin B and actinomycin D are dissolved in 1 ml ethanol and diluted 20 fold by mixing with NAF, endotoxin or fMLP in PFS. In studies on inhibition of inflammatory responses 40 μg polymyxin B and 10^−7 moles actinomycin D are injected per skin site with […] endotoxin. In all experiments 0.2 ml of inflammatory agents are injected intradermally per site through 26 gauge needles, with 5 replicates of each treatment in each animal.

[3] = system: human neutrophils; assay: superoxide formation (SOD-sensitive cytochrome c reduction) by human neutrophils; type: cell-based; conditions: 1 μm PAF for 2 minutes
Procedure: a) Superoxide production: neutrophils (3×10^6 /ml) are preincubated at 37° with or without 1 μm PAF for 2 minutes and then stimulated with increasing amounts of NAF. Recordings of cytochrome c reduction following NAF addition are shown.
Superoxide formation is measured at 37° as the SOD sensitive reduction of ferricytochrome c (M. Markert et al., Methods Enzymol. 132 [1984] 267). The assay mixture (800 μl) consists of 0.75×10^6 cells/ml PBS-BSA containing 85 μM cytochrome c. Absorbance changes are recorded in a Hewlett-Packard 8451A diode array spectrophotometer equipped with a thermostated seven-place cuvette exchanger. Table 4 documents the capacity of NAF to elicit the respiratory burst in human neutrophils: […]

[4] = system: human monocytes; assay: NAF production by stimulated human mononuclear cells/monocytes (read out as elastase release); type: cell-based; conditions: mononuclear cell fraction; PHA 5 μg/ml or ConA 10 μg/ml
Procedure: […] At various time intervals the media are collected, cleared by centrifugation (20000 rpm for 20 min. at 4° C.) and NAF activity is measured. Cells from a single donor; means of duplicate cultures.
Human monocytes are isolated from buffy coats of donor blood (Swiss Red Cross Laboratory, Bern, Switzerland) by centrifugation through a Ficoll-Paque gradient. This method separates neutrophils from the so-called mononuclear cells, a mixture of monocytes (about 20%) and lymphocytes (about 80%). Three monocyte preparations are used: (i) the total mononuclear cell fraction, (ii) monocytes enriched from the mononuclear cell fraction by adherence, and (iii) 90% pure monocytes separated from the lymphocytes by centrifugal elutriation (G. Garotta et al., Biochem. Biophys. Res. Comm. 140 [1986] 948-954 and K. J. Clemetson et al., J. Exp. Med. 161 [1985] 972-983). […] At different times, aliquots of the culture media are sampled and NAF activity is determined as the capacity to induce the release of elastase from human neutrophils pretreated with cytochalasin B (B. Dewald et al., Biochem. Pharmacol. 36 [1987] 2505-2510).
Mononuclear cell cultures (5×10^6 cells/ml) consisting of monocytes and lymphocytes in a ratio of approximately 1:5 produce NAF when stimulated with LPS (100 ng/ml). NAF accumulates in the medium over 24 h and the production levels off between 24 h and 48 h. […]

[5] = system: human neutrophils; assay: stimulus-dependent exocytosis of granule contents by human neutrophils; type: cell-based; conditions: fMLP 0.1 μM
Procedure: Neutrophils (5×10^6/ml) suspended in PBS/BSA are preincubated with or without cytochalasin B (5 μg/ml) at 37° for 5 min.
Granule release is then initiated by adding the stimulus, e.g. NAF or a standard stimulus. The reaction is stopped 15 min later by rapid cooling in ice followed by centrifugation to sediment the cells. Vitamin B12-binding protein, β-glucuronidase and lactate dehydrogenase are determined in the cell-free media and cell pellets, and the release of these constituents is calculated in percent of the total cellular content (B. Dewalt and M. Baggiolini, Methods Enzymol. 132 [1986] 267).
Natural and recombinant NAF are tested in parallel on human neutrophils. They elicit virtually identical changes in cytosolic free Ca^2+, yielding a maximum rise at a concentration as low as 3 nM (FIG. 15). A nearly identical concentration-dependent respiratory burst response is obtained with both preparations in the range of 1 to 30 nM as assessed by chemiluminescence. The equivalence between natural and recombinant NAF is also reflected by chemotaxis and exocytosis measurements. Chemotactic migration is observed between 0.1 and 10 nM with a maximum effect at 1 nM. (Table 6). With either peptide a significant release of vitamin B12-binding protein from the specific granules at 0.3 nM and of beta-glucuronidase from the azurophil granules at 1 nM is observed.

[6] = system: human neutrophils; assay: hydrogen peroxide formation by chemiluminescence in human neutrophils; type: cell-based
Procedure: b) H2O2-dependent chemiluminescence: the progress curves following stimulation with partially purified NAF and approximately equiactive concentrations of C5a and fMLP are shown on the left. The initial phase of the response is detailed on the right. The stimulants are added in 50 μl of PBS-BSA.
Lower graphs: respiratory burst induced by natural (left) and recombinant (right) NAF. Neutrophils (10^6 cells/ml) are stimulated with 3, 10 and 30 nM NAF at time zero and hydrogen peroxide production is measured by chemiluminescence (M. P. Wymann et al., Anal. Biochem. 165 [1987] 371-378).
The properties of NAF, fMLP and C5a as stimuli of the respiratory burst are compared by assessing the production of superoxide or hydrogen peroxide by the stimulated cells. Superoxide formation is determined as described in Example 13. Hydrogen peroxide formation is determined by chemiluminescence (M. P. Wymann et al., Anal. Biochem. 165 [1987] 371-378). The assay mixture consisting of PBS-BSA containing 0.1 M sodium azide, 0.01 mM luminol, 9 U/ml horseradish peroxidase and 10^6 neutrophils is preincubated for 10 min at 37° and the reaction is started by adding the stimulus via a microsyringe.

[7] = system: Rabbit neutrophils; assay: NAF-induced exocytosis in rabbit neutrophils (N-acetyl-β-glucosaminidase release); type: cell-based; conditions: stimulus 100.0 nM, 15 min, cytochalasin B pretreated; purified natural NAF
Procedure: Rabbit neutrophils are isolated from peripheral blood (obtained from the ear vein or artery) by dextran sedimentation followed by Hypaque-Ficoll density gradient centrifugation. Purified natural NAF is used.
Exocytosis conditions: 0.6×10^6 cells (in a total volume of 0.15 ml) pretreated with cytochalasin B for 5 min at 37° are stimulated with NAF (0.1-100 nM) or fMLP (100 nM) for 15 min. N-acetyl-β-glucosaminidase, an azurophil granule marker, is determined in the cell-free medium.

[8] = exposure to fresh human serum, then activity (superoxide production); type: in vitro ADME; conditions: 15 minutes with fresh human serum
Procedure: C5A and NAF are incubated for 15 minutes with fresh human serum or with PBS and the activity of the preparations is determined (superoxide production).
Since C5a and NAF have similar effects on neutrophils, further experiments must be performed to discriminate entirely between the two. Samples of NAF and C5a are exposed to fresh human serum.

[9] = system: neutrophils; assay: sequential/repeated stimulation of neutrophils (desensitization, superoxide formation); type: cell-based, human; conditions: superoxide formation
Procedure: a) Neutrophils (3×10^6 /ml) are preincubated at 37° C. for 5 min. and then stimulated with different agonists as indicated (arrows).
b) Sequential or repeated stimulation with NAF and C5a. Conditions as in a).
Arrows show addition of agonists as indicated. The concentration of C5a is 0.5 nM in a) and 0.2 nM in b), that of fMLP is 20 nM in both experiments. The agonists are added in 50 μl of PBS-BSA.
On the other hand, when agonists acting on different receptors are used in sequence.(e.g. fMLP followed by C5a) these stimulations yield a normal response. Experiments of this type are therefore used to find out whether NAF acts by its own receptor or via a receptor also used by other agonists.

[10] = with CB (cytochalasin B 5 μg/ml)

CCCCC/C=C\C[C@@H](O)/C=C/C=C/C=C\[C@@H](O)CCCC(=O)O [leukotriene B4]
time between stimulus addition and onset of H2O2 production, as previously reported [1]: about 2 sec

Cc1c2oc3c(C)ccc(C(=O)N[C@@H]4C(=O)N[C@H](C(C)C)C(=O)N5CCC[C@H]5C(=O)N(C)CC(=O)N(C)[C@@H](C(C)C)C(=O)O[C@@H]4C)c3nc-2c(C(=O)N[C@@H]2C(=O)N[C@H](C(C)C)C(=O)N3CCC[C@H]3C(=O)N(C)CC(=O)N(C)[C@@H](C(C)C)C(=O)O[C@@H]2C)c(N)c1=O [actinomycin D] (I: T[dV]P[Sar][NMeV] / II: T[dV]P[Sar][NMeV]; ester I:1-I:C, II:1-II:C; linker I:N-II:N via Actinocin(9to1))
effect on neutrophil accumulation induced by NAF ([2]; actinomycin D 10^−7 moles/site): no effect | inhibition of neutrophil accumulation induced by endotoxin ([2]; actinomycin D 10^−7 moles/site, endotoxin 10^−13 moles): 90% | effect on neutrophil accumulation induced by fMLP ([2]; actinomycin D 10^−7 moles/site): no effect

Polymyxin B
effect on neutrophil accumulation induced by NAF ([2]; polymyxin B 40 μg/site): without effect | inhibition of the response to endotoxin ([2]; polymyxin B 40 μg/site, endotoxin 10^−13 moles): 84% | effect on neutrophil accumulation induced by fMLP ([2]; polymyxin B 40 μg/site): without effect

1-0-hexadecyl-2-0-acetyl-sn-glycero-3-phosphocholine [PAF, reference compound]
time between stimulus addition and onset of H2O2 production, as previously reported [1]: about 2 sec | effect of pretreatment of the cells with PAF on the superoxide response to NAF [3]: markedly enhanced

concanavalin A [ConA]
time at which maximum of NAF production is reached [4]: about 24 h

phytohemagglutinin [PHA]
time at which maximum of NAF production is reached [4]: about 24 h

CSCC[C@H](NC=O)C(=O)N[C@@H](CC(C)C)C(=O)N[C@@H](Cc1ccccc1)C(=O)O [fMLP, N-formyl-L-methionyl-L-leucyl-L-phenylalanine, reference compound]
Percent release of Vit. B12-binding protein [5, 10]: 35.6 ± 5.5% | Percent release of lactate dehydrogenase [5, 10]: 5.3 ± 1.6% | Percent release of β-glucuronidase [5, 10]: 12.1 ± 4.4% | Percent release of Vit. B12-binding protein ([5]; without CB): 14.0 ± 0.9% | Percent release of lactate dehydrogenase ([5]; without CB): 5.7 ± 1.1% | Percent release of β-glucuronidase ([5]; without CB): 2.3 ± 0.8% | time between stimulus addition and onset of H2O2 production [6]: about 2 sec | time between stimulus addition and onset of H2O2 production, as previously reported [1]: about 2 sec | N-acetyl-β-glucosaminidase [7]: 181 pmol/min

B1: C5a: anaphylatoxin (protein, UniProt P01031 678-751, looked up)
C5a anaphylatoxin: TLQKKIEEIAAKYKHSVVKKCCYDGACVNNDETCEQRAARISLGPRCIKAFTECCVVASQLRANISHKDMQLGR
modifications: C5a anaphylatoxin
time between stimulus addition and onset of H2O2 production [6]: about 2 sec | time between stimulus addition and onset of H2O2 production, as previously reported [1]: about 2 sec | effect of serum treatment on activity [8]: completely abolishes | desensitization to a second stimulation with the same agonist [9]: complete desensitization
